Measurements as given in PubChem BioAssay AID330 (DTP/NCI, 2004).
“And” between values parts separate entries of the source, which are not always exact repeats. Equal values may be shown once. Inconclusive results and toxic doses are left out.

Test system: P388 leukemia ip, CD2F1 mice, survival T/C
Test: NCI In Vivo Anticancer Drug Screen. Data for tumor model P388 Leukemia (intraperitoneal) in CD2F1 (CDF1) mice
Conditions: endpoint: median survival time, higher = longer survival
Procedure, shortened: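 Mice carrying the transplanted tumor received test compound or vehicle. Survival was recorded in each group, and the value is the treated-group measurement divided by that of the vehicle-treated control group.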

[1] = dose: 60.0 mg/kg/injection, schedule: Q01DX005 (ip), vehicle: Klucel (hydroxypropylcellulose) (HPC)
[2] = dose: 120.0 mg/kg/injection, schedule: Q01DX005 (ip), vehicle: Klucel (hydroxypropylcellulose) (HPC)
[3] = dose: 240.0 mg/kg/injection, schedule: Q01DX005 (ip), vehicle: Klucel (hydroxypropylcellulose) (HPC)
[4] = dose: 50.0 mg/kg/injection, schedule: Q01DX009 (ip), vehicle: saline with Tween-80
[5] = dose: 100.0 mg/kg/injection, schedule: Q01DX009 (ip), vehicle: saline with Tween-80
[6] = dose: 50.0 mg/kg/injection, schedule: Q01DX005 (ip), vehicle: saline
[7] = dose: 100.0 mg/kg/injection, schedule: Q01DX005 (ip), vehicle: saline
[8] = dose: 50.0 mg/kg/injection, schedule: Q01DX005 (ip), vehicle: Klucel (hydroxypropylcellulose) (HPC)
[9] = dose: 100.0 mg/kg/injection, schedule: Q01DX005 (ip), vehicle: Klucel (hydroxypropylcellulose) (HPC)
[10] = dose: 200.0 mg/kg/injection, schedule: Q01DX005 (ip), vehicle: Klucel (hydroxypropylcellulose) (HPC)
[11] = dose: 100.0 mg/kg/injection, schedule: Q01DX001 (ip), vehicle: Klucel (hydroxypropylcellulose) (HPC)
[12] = dose: 200.0 mg/kg/injection, schedule: Q01DX001 (ip), vehicle: Klucel (hydroxypropylcellulose) (HPC)
[13] = dose: 400.0 mg/kg/injection, schedule: Q01DX001 (ip), vehicle: Klucel (hydroxypropylcellulose) (HPC)
[14] = dose: 12.5 mg/kg/injection, schedule: Q01DX009 (ip), vehicle: saline with Tween-80
[15] = dose: 25.0 mg/kg/injection, schedule: Q01DX009 (ip), vehicle: saline with Tween-80
[16] = dose: 50.0 mg/kg/injection, schedule: Q01DX009 (ip), vehicle: saline
[17] = dose: 100.0 mg/kg/injection, schedule: Q01DX009 (ip), vehicle: saline

## O=C(CC(=O)c1ccc(Cl)cc1)c1ccc(Cl)cc1
dose: 50.0 mg/kg/injection, schedule: Q04DX003 (ip), vehicle: saline with Tween-80
  T/C: 100 % of control
dose: 100.0 mg/kg/injection, schedule: Q04DX003 (ip), vehicle: saline with Tween-80
  T/C: 100 % of control
dose: 200.0 mg/kg/injection, schedule: Q04DX003 (ip), vehicle: saline with Tween-80
  T/C: 98 % of control
dose: 400.0 mg/kg/injection, schedule: Q04DX003 (ip), vehicle: saline with Tween-80
  T/C: 93 % of control

## Cc1cccc(/C=C/C(=O)C(C)CN(C)C)c1 (stereo not drawn)
dose: 15.0 mg/kg/injection, schedule: Q01DX005 (ip), vehicle: saline
  T/C: 98 % of control
dose: 30.0 mg/kg/injection, schedule: Q01DX005 (ip), vehicle: saline
  T/C: 105 % of control
dose: 60.0 mg/kg/injection, schedule: Q01DX005 (ip), vehicle: saline
  T/C: 107 % of control and 116 % of control

## Oc1nc2nc[nH]n2c1N=Nc1ccccc1
[1]
  T/C: 115 % of control
[2]
  T/C: 98 % of control
[3]
  T/C: 92 % of control

## Clc1cccn2cnnc12
[4]
  T/C: 98 % of control
[5]
  T/C: 103 % of control
dose: 200.0 mg/kg/injection, schedule: Q01DX009 (ip), vehicle: saline with Tween-80
  T/C: 100 % of control

## CCCCCN(CCCCC)CC(C)(O)CNc1cc(OC)cc2cccnc12 (stereo not drawn)
[6]
  T/C: 95 % of control
[7]
  T/C: 87 % of control

## COc1ccc(C2Oc3cc(O)c4c(=O)c5c(OC)cccc5oc4c3OC2CO)cc1O (stereo not drawn)
dose: 6.25 mg/kg/injection, schedule: Q01DX009 (ip), vehicle: saline + alcohol
  T/C: 111 % of control
dose: 12.5 mg/kg/injection, schedule: Q01DX009 (ip), vehicle: saline + alcohol
  T/C: 100 % of control
dose: 25.0 mg/kg/injection, schedule: Q01DX009 (ip), vehicle: saline + alcohol
  T/C: 100 % of control

## N#Cc1ccccc1C#N
dose: 1.56 mg/kg/injection, schedule: Q04DX003 (ip), vehicle: saline
  T/C: 98 % of control
dose: 3.13 mg/kg/injection, schedule: Q04DX003 (ip), vehicle: saline
  T/C: 98 % of control
dose: 6.25 mg/kg/injection, schedule: Q04DX003 (ip), vehicle: saline
  T/C: 100 % of control
dose: 12.5 mg/kg/injection, schedule: Q04DX003 (ip), vehicle: saline with Tween-80
  T/C: 104 % of control
dose: 12.5 mg/kg/injection, schedule: Q04DX003 (ip), vehicle: saline
  T/C: 100 % of control
dose: 25.0 mg/kg/injection, schedule: Q04DX003 (ip), vehicle: saline with Tween-80
  T/C: 95 % of control

## CC(=O)N(O)C(C)=O
[6]
  T/C: 100 % of control
[7]
  T/C: 104 % of control
dose: 200.0 mg/kg/injection, schedule: Q01DX005 (ip), vehicle: saline
  T/C: 107 % of control

## CC(C)(C)OC(=O)NC(Cc1c[nH]c2ccccc12)C(=O)O (stereo not drawn)
[8]
  T/C: 102 % of control
[9]
  T/C: 101 % of control
[10]
  T/C: 101 % of control

## O=C1CSC(c2cccs2)N1c1nncs1 (stereo not drawn)
[1]
  T/C: 100 % of control
[2]
  T/C: 100 % of control
[3]
  T/C: 172 % of control

## COc1ccc2nc3cc(Cl)ccc3c(NCC3CCCN4CCCCC34)c2c1 (stereo not drawn)
dose: 12.5 mg/kg/injection, schedule: Q01DX005 (ip), vehicle: distilled water + Tween-80
  T/C: 98 % of control
dose: 25.0 mg/kg/injection, schedule: Q01DX005 (ip), vehicle: distilled water + Tween-80
  T/C: 103 % of control
dose: 50.0 mg/kg/injection, schedule: Q01DX005 (ip), vehicle: distilled water + Tween-80
  T/C: 104 % of control
dose: 100.0 mg/kg/injection, schedule: Q01DX005 (ip), vehicle: distilled water + Tween-80
  T/C: 113 % of control

## C(NC=C(c1ccccc1)c1ccccc1)=C(c1ccccc1)c1ccccc1
[11]
  T/C: 103 % of control
[12]
  T/C: 107 % of control
[13]
  T/C: 103 % of control

## CC(C)(C)CC(C)(C)C/C=C/CN1C(=O)c2ccccc2S1(=O)=O
[8]
  T/C: 101 % of control
[9]
  T/C: 100 % of control
[10]
  T/C: 108 % of control

## O=C(NCCF)Oc1cc(Cl)c(Cl)cc1Cl
dose: 6.25 mg/kg/injection, schedule: Q01DX005 (ip), vehicle: Klucel (hydroxypropylcellulose) (HPC)
  T/C: 106 % of control
dose: 12.5 mg/kg/injection, schedule: Q01DX005 (ip), vehicle: Klucel (hydroxypropylcellulose) (HPC)
  T/C: 107 % of control and 120 % of control

## ClCc1cccc2c(CCl)cccc12
[14]
  T/C: 113 % of control
[15]
  T/C: 110 % of control and 124 % of control
[4]
  T/C: 121 % of control

## COc1ccc(-c2coc3cc(OC4OC(COC5OC(CO)C(O)C(O)C5O)C(O)C(O)C4O)cc(O)c3c2=O)cc1 (stereo not drawn)
[15]
  T/C: 101 % of control
[4]
  T/C: 98 % of control
[5]
  T/C: 93 % of control

## CC1(O)C2C3C(I)C4C5C3C1C5C42 (stereo not drawn)
[11]
  T/C: 92 % of control
[12]
  T/C: 88 % of control
[13]
  T/C: 87 % of control

## CC(C)N(/C=C/C(=O)c1ccccc1)C(C)C
[14]
  T/C: 99 % of control
[15]
  T/C: 100 % of control
[4]
  T/C: 94 % of control and 95 % of control

## C1COCCOCCOCCO1.[Cl][Sn]([Cl])([Cl])[Cl]
[11]
  T/C: 98 % of control
[12]
  T/C: 90 % of control

## CC(=O)OC1OC(CS[As](C)C)C(OC(C)=O)C(OC(C)=O)C1OC(C)=O (stereo not drawn)
[16]
  T/C: 104 % of control
[17]
  T/C: 106 % of control
dose: 200.0 mg/kg/injection, schedule: Q01DX009 (ip), vehicle: saline
  T/C: 104 % of control

## Cc1nc2ccccc2c(=O)n1/N=C/c1ccccc1Cl
dose: 50.0 mg/kg/injection, schedule: Q01DX005 (ip), vehicle: saline with Tween-80
  T/C: 100 % of control
dose: 100.0 mg/kg/injection, schedule: Q01DX005 (ip), vehicle: saline with Tween-80
  T/C: 99 % of control
dose: 200.0 mg/kg/injection, schedule: Q01DX005 (ip), vehicle: saline with Tween-80
  T/C: 100 % of control

## COc1cc2oc3cc(=O)cc4oc(-c5ccccc5)cc(c2c2c1CCC(c1ccccc1)O2)c43 (stereo not drawn)
dose: 3.25 mg/kg/injection, schedule: Q01DX005 (ip), vehicle: Klucel + Tween-80
  T/C: 98 % of control
dose: 6.5 mg/kg/injection, schedule: Q01DX005 (ip), vehicle: Klucel + Tween-80
  T/C: 99 % of control
dose: 13.0 mg/kg/injection, schedule: Q01DX005 (ip), vehicle: Klucel + Tween-80
  T/C: 103 % of control
dose: 26.0 mg/kg/injection, schedule: Q01DX005 (ip), vehicle: Klucel + Tween-80
  T/C: 107 % of control

## C=CC1(C)CCC2C(=CCC3C2(C)CC(O)C(O)C3(C)COC2OC(CO)C(O)C(O)C2O)C1 (stereo not drawn)
dose: 1.5 mg/kg/injection, schedule: Q01DX009 (ip), vehicle: Klucel (hydroxypropylcellulose) (HPC)
  T/C: 103 % of control
dose: 3.0 mg/kg/injection, schedule: Q01DX009 (ip), vehicle: Klucel (hydroxypropylcellulose) (HPC)
  T/C: 106 % of control
dose: 6.0 mg/kg/injection, schedule: Q01DX009 (ip), vehicle: Klucel (hydroxypropylcellulose) (HPC)
  T/C: 116 % of control
dose: 12.0 mg/kg/injection, schedule: Q01DX009 (ip), vehicle: Klucel (hydroxypropylcellulose) (HPC)
  T/C: 108 % of control
dose: 12.5 mg/kg/injection, schedule: Q01DX009 (ip), vehicle: saline
  T/C: 99 % of control
dose: 24.0 mg/kg/injection, schedule: Q01DX009 (ip), vehicle: Klucel (hydroxypropylcellulose) (HPC)
  T/C: 108 % of control
dose: 25.0 mg/kg/injection, schedule: Q01DX009 (ip), vehicle: saline
  T/C: 100 % of control
[16]
  T/C: 98 % of control
[17]
  T/C: 93 % of control

## COC(=O)c1cc(=O)n(-c2cccc(OC)c2)c(SC)n1
dose: 25.0 mg/kg/injection, schedule: Q04DX002 (ip), vehicle: Klucel (hydroxypropylcellulose) (HPC)
  T/C: 107 % of control
dose: 50.0 mg/kg/injection, schedule: Q04DX002 (ip), vehicle: Klucel (hydroxypropylcellulose) (HPC)
  T/C: 103 % of control
dose: 100.0 mg/kg/injection, schedule: Q04DX002 (ip), vehicle: Klucel (hydroxypropylcellulose) (HPC)
  T/C: 104 % of control and 105 % of control

## O=C(CBr)Nc1ncc([N+](=O)[O-])s1
dose: 6.25 mg/kg/injection, schedule: Q01DX009 (ip), vehicle: Klucel (hydroxypropylcellulose) (HPC)
  T/C: 102 % of control
dose: 12.5 mg/kg/injection, schedule: Q01DX009 (ip), vehicle: Klucel (hydroxypropylcellulose) (HPC)
  T/C: 104 % of control

## O=C1/C(=C/c2ccccc2)CNC/C1=C\c1ccccc1
[1]
  T/C: 102 % of control
[2]
  T/C: 111 % of control
[3]
  T/C: 116 % of control

## O=C(CBr)c1cccc(OC(=O)c2ccccc2)c1
dose: 6.25 mg/kg/injection, schedule: Q01DX009 (ip), vehicle: saline with Tween-80
  T/C: 108 % of control
[14]
  T/C: 108 % of control
